Among the data in PubChem BioAssay (NCI) are TGI and GI50 values, retold here.

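Cultured in 96-well plates, cells were exposed to test compound for 48 hours across five concentrations. The concentration for 50% growth inhibition is given as GI50. TGI: total growth inhibition.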

Among the test systems are U251 CNS; SNB-19 CNS; ACHN renal; UO-31 renal; HOP-62 NSCLC; RPMI-8226 leukemia; SK-MEL-2 melanoma; M14 melanoma; K-562 leukemia.
Holding throughout (experiment): NCI anticancer screen, dose series, 48 h

`c1csc(-c2csc(-c3cccs3)c2)c1`: the TGI with U251 CNS is over 100 µM; in the experiment with SNB-19 CNS, over 100 µM; in the experiment on ACHN renal, over 100 µM; with UO-31 renal, over 100 µM; in the experiment on HOP-62 NSCLC, over 100 µM; with RPMI-8226 leukemia, 57.1 µM. In addition, the TGI with SK-MEL-2 melanoma was 41.1 µM; in the experiment on M14 melanoma, over 100 µM.

With `O=C(NNc1ccc([N+](=O)[O-])cc1)C1OC(CO)C(O)C1O` (configuration not stated), the TGI in the experiment with U251 CNS, in the experiment on SNB-19 CNS, with ACHN renal, in the experiment with UO-31 renal, with HOP-62 NSCLC and with RPMI-8226 leukemia was over 100 µM in each case. The TGI in the experiment with SK-MEL-2 melanoma, in the experiment on M14 melanoma and in the experiment on K-562 leukemia was over 100 µM throughout.

For `Cc1cccc(-c2cc(=O)c3c(C)ccnc3[nH]2)c1`, the TGI in the experiment with U251 CNS is over 100 µM; with ACHN renal, over 100 µM; with HOP-62 NSCLC it was over 100 µM; in the experiment on RPMI-8226 leukemia, 26.1 µM; in the experiment on SK-MEL-2 melanoma it was over 100 µM; in the experiment on M14 melanoma it was over 100 µM. Besides, the TGI in the experiment with K-562 leukemia is over 100 µM.

Consider `CCCCCCCCCC[C@@H](O)[C@H]1CC[C@@H]([C@H]2CC[C@H]([C@H](O)CCCCCCCCCC[C@@H]3CC(CC(C)=O)C(=O)O3)O2)O1` (some centres not stated), for which the GI50 in the experiment with SNB-19 CNS is 18.3 µM; in the experiment on ACHN renal, 14.6 µM; in the experiment on UO-31 renal, 15.2 µM; in the experiment with HOP-62 NSCLC, 19.1 µM; with RPMI-8226 leukemia it was 5.03 µM; in the experiment with SK-MEL-2 melanoma, 21.5 µM. The GI50 in the experiment with M14 melanoma is 20 µM. For the same molecule, the TGI was over 100 µM in the experiment with SNB-19 CNS; 34.6 µM with UO-31 renal; 72.2 µM with HOP-62 NSCLC; 26.2 µM with RPMI-8226 leukemia; 59.9 µM in the experiment with SK-MEL-2 melanoma; 50.4 µM with M14 melanoma.

Turning to `Nc1ncc(Cc2nn3c(COc4ccc(Cl)cc4)nnc3s2)s1`, the TGI in the experiment with SNB-19 CNS is over 100 µM; with ACHN renal it was 14 µM; in the experiment on UO-31 renal, over 100 µM; in the experiment with HOP-62 NSCLC, over 100 µM; in the experiment with RPMI-8226 leukemia, over 100 µM; with SK-MEL-2 melanoma it was over 100 µM. The TGI with M14 melanoma and in the experiment on K-562 leukemia was over 100 µM each time.

`C=C1C(=O)OC2C1CC1OC2C(C)CCC/C(C)=C\CCC1(C)O` (configuration not stated): the TGI was over 91.1 µM in the experiment on U251 CNS; 103 µM in the experiment on SNB-19 CNS; 79.6 µM in the experiment with UO-31 renal; over 65.9 µM in the experiment on HOP-62 NSCLC; 24.3 µM with RPMI-8226 leukemia; 32.7 µM in the experiment with SK-MEL-2 melanoma. For the same molecule, in the experiment with K-562 leukemia, the TGI came out at 48.5 µM.

Consider `Cc1ccc(NC(=O)NC23CC4CC(CC(F)(C4)C2)C3)cc1`, for which the TGI in the experiment with U251 CNS is over 100 µM; in the experiment with SNB-19 CNS, over 100 µM; in the experiment with ACHN renal, over 100 µM; with UO-31 renal, over 100 µM; with HOP-62 NSCLC, over 100 µM; with RPMI-8226 leukemia, 90.2 µM. Moreover, the TGI in the experiment on SK-MEL-2 melanoma, in the experiment on M14 melanoma and in the experiment on K-562 leukemia was over 100 µM each time.

On to `CC1=NN(C(=O)Cc2ccccc2)C(=O)/C1=C\c1cccc(O)c1`, for which the TGI in the experiment on U251 CNS, in the experiment with SNB-19 CNS, in the experiment on ACHN renal, in the experiment with UO-31 renal, with HOP-62 NSCLC and in the experiment on RPMI-8226 leukemia was over 100 µM in each case. Also, the TGI in the experiment with SK-MEL-2 melanoma, in the experiment on M14 melanoma and in the experiment on K-562 leukemia was over 100 µM each time.

With `Cc1cc(=O)[nH]c(S(=O)(=O)NC(=S)Nc2ccc(Br)cc2)n1`, the TGI in the experiment with U251 CNS, in the experiment with SNB-19 CNS, with ACHN renal, in the experiment with UO-31 renal, in the experiment on HOP-62 NSCLC and with RPMI-8226 leukemia was over 100 µM each time. The TGI in the experiment with SK-MEL-2 melanoma and in the experiment with M14 melanoma was over 100 µM each time.

With `CCC[CH2][Ge]([CH2]CCC)([CH2]CCC)[O]C(=O)CCl`, the GI50 with U251 CNS is 0.889 µM; with SNB-19 CNS, 10.8 µM; in the experiment on ACHN renal, 2.71 µM; with UO-31 renal it was 2.28 µM; in the experiment on HOP-62 NSCLC it was 1.89 µM; in the experiment with SK-MEL-2 melanoma, 3.59 µM. Also, the values for the GI50 with M14 melanoma and in the experiment on K-562 leukemia were 1.25 µM and 0.879 µM, respectively. Further, the TGI with U251 CNS was 16.6 µM; in the experiment on SNB-19 CNS it was 22.9 µM; with ACHN renal, 18.4 µM; in the experiment with UO-31 renal, 15.6 µM; in the experiment with HOP-62 NSCLC, 9.23 µM; in the experiment with SK-MEL-2 melanoma, 19.7 µM. The TGI was found to be 6.94 µM in the experiment with M14 melanoma and 31.6 µM in the experiment with K-562 leukemia.

Regarding `COc1cc(/C=C/C=C2\CC(C)C/C(=C\C=C\c3ccc(O)c(OC)c3)C2=O)ccc1O` (configuration not stated), the TGI amounted to 33 µM in the experiment with U251 CNS; 96.2 µM in the experiment on SNB-19 CNS; 40.8 µM in the experiment with ACHN renal; 25.1 µM with UO-31 renal; 37.8 µM in the experiment on HOP-62 NSCLC; 48.1 µM with RPMI-8226 leukemia. In addition, the figures for the TGI in the experiment on SK-MEL-2 melanoma, in the experiment on M14 melanoma and with K-562 leukemia were over 100 µM, 46.9 µM and over 100 µM, respectively.

For the molecule `CC1Oc2c(c(O)cc3oc(=O)cc(-c4ccccc4)c23)C(=O)C1C` (configuration not stated), the TGI in the experiment on U251 CNS, with ACHN renal, with UO-31 renal, in the experiment with RPMI-8226 leukemia, with SK-MEL-2 melanoma and in the experiment with M14 melanoma was over 100 µM throughout. The same molecule showed a TGI in the experiment on K-562 leukemia of over 100 µM.

`C#Cc1ccccc1C(=O)OC`: the TGI with U251 CNS, in the experiment with SNB-19 CNS, with ACHN renal, in the experiment on UO-31 renal, with HOP-62 NSCLC and in the experiment with RPMI-8226 leukemia was over 100 µM throughout. Further, the TGI in the experiment on SK-MEL-2 melanoma, with M14 melanoma and in the experiment with K-562 leukemia was over 100 µM each time.

As to `CC[N+]1(C)CCC(O)(/C=C/c2ccc(Cl)c(Cl)c2)C(C(=O)/C=C/c2ccc(Cl)c(Cl)c2)C1` (configuration not stated), the TGI in the experiment with U251 CNS worked out at 3.71 µM; in the experiment with SNB-19 CNS it was 17.3 µM; in the experiment on ACHN renal it was 4.15 µM; with UO-31 renal, 3.67 µM; in the experiment with HOP-62 NSCLC, 6.8 µM; in the experiment with RPMI-8226 leukemia it was 5.7 µM. In addition, the TGI is 11.4 µM in the experiment on SK-MEL-2 melanoma, over 23.3 µM in the experiment on M14 melanoma and 4.07 µM in the experiment on K-562 leukemia.

Turning to `Brc1ccc2[nH]cc(-c3nc(-c4c[nH]c5ccncc45)cs3)c2c1`, the GI50 is 1.77 µM in the experiment on ACHN renal; 1.47 µM in the experiment with UO-31 renal; 2.48 µM in the experiment with RPMI-8226 leukemia; 1.92 µM in the experiment with SK-MEL-2 melanoma; 1.83 µM with M14 melanoma; 0.98 µM in the experiment with K-562 leukemia. The TGI in the experiment on ACHN renal came out at 3.16 µM; with UO-31 renal, 2.8 µM; in the experiment on RPMI-8226 leukemia, 5.23 µM; in the experiment on SK-MEL-2 melanoma, 3.72 µM; with M14 melanoma it was 3.42 µM; with K-562 leukemia, 3.38 µM.

With `O.O=[Se](=O)(O)O.[NH-]C1CCCCC1[NH-].[Pt+2]` (configuration not stated), the GI50 in the experiment with U251 CNS was 37 µM; in the experiment with SNB-19 CNS, over 50.7 µM; in the experiment on UO-31 renal it was 7.66 µM; in the experiment with HOP-62 NSCLC it was 37.5 µM; in the experiment on RPMI-8226 leukemia, 1.12 µM; with SK-MEL-2 melanoma, 22.9 µM. Further, the GI50 with K-562 leukemia is 5.35 µM. Moreover, the TGI was over 100 µM in the experiment with U251 CNS; over 100 µM in the experiment on SNB-19 CNS; over 68 µM in the experiment on UO-31 renal; over 100 µM with HOP-62 NSCLC; over 31.6 µM with RPMI-8226 leukemia; over 100 µM in the experiment on SK-MEL-2 melanoma. Besides, the TGI with K-562 leukemia is over 100 µM.

Consider `C=CC(=O)N1C/C(=C\c2ccc(F)cc2)C(=O)/C(=C/c2ccc(F)cc2)C1`, for which the TGI with U251 CNS stood at 2.28 µM; in the experiment with SNB-19 CNS, 3.72 µM; in the experiment with ACHN renal, 0.715 µM; with UO-31 renal, 2.17 µM; in the experiment with HOP-62 NSCLC it was 1.41 µM; in the experiment on SK-MEL-2 melanoma it was 2.69 µM. Further, the TGI in the experiment with M14 melanoma was 1.38 µM; in the experiment on K-562 leukemia, over 100 µM.

As for `O=C(c1ccccc1)c1ccc2c(c1)N=C(c1ccc(Cl)c(Cl)c1)CC(c1ccc3ccccc3c1)N2` (configuration not stated), the TGI in the experiment with U251 CNS, in the experiment with SNB-19 CNS, in the experiment with ACHN renal, in the experiment on UO-31 renal, in the experiment on HOP-62 NSCLC and in the experiment with RPMI-8226 leukemia was over 100 µM each time. The TGI in the experiment with SK-MEL-2 melanoma, in the experiment on M14 melanoma and with K-562 leukemia was over 100 µM throughout.

For `COc1cccc2c1C(=O)c1c(O)c3c(c(O)c1C2=O)C[C@](O)(C(=O)CO)CC3OC1CC(N)C(OC2CCCCO2)C(C)O1` (some centres not stated), the TGI is 0.899 µM with U251 CNS; 4.16 µM in the experiment on SNB-19 CNS; 3.63 µM with UO-31 renal; 1.7 µM in the experiment with HOP-62 NSCLC; 5.12 µM with RPMI-8226 leukemia; 2.43 µM in the experiment with SK-MEL-2 melanoma. In the experiment on K-562 leukemia, this molecule displayed a TGI of 6.5 µM.

On to `COc1ccc(/C(Cl)=C(\C=O)c2ccc(Cl)cc2)cc1`, for which the TGI turned out to be 17.7 µM in the experiment on U251 CNS; 87.4 µM in the experiment on SNB-19 CNS; 21.2 µM with ACHN renal; 33.1 µM in the experiment on UO-31 renal; 53.6 µM in the experiment with HOP-62 NSCLC; 54.6 µM with SK-MEL-2 melanoma. The TGI with M14 melanoma and with K-562 leukemia was over 100 µM throughout.

With `CN(c1ccccc1)c1c(-c2ccccc2)c(=O)oc2c1ccc1occc12`, the TGI with U251 CNS, with SNB-19 CNS, in the experiment on UO-31 renal, in the experiment on HOP-62 NSCLC, with SK-MEL-2 melanoma and with K-562 leukemia was over 100 µM each time.
